Assay results reported in ChEMBL document CHEMBL1828619, “Identification of pyridazin-3-one derivatives as potent, selective histamine H₃ receptor inverse agonists with robust wake activity” (Bioorg Med Chem Lett, 2011).
pEC50, pIC50, pKi: −log10 of the molar value. Each block holds one molecule with its values, some of them ahead of it. Calls of active or inactive are those of the source. The calls are words filed in the database; no cut-off is given here.

Assays:
Histamine H3 receptor [1] = target: T1, Histamine H3 receptor (Homo sapiens, UniProt Q9Y5N1); experiment: Displacement of [3H]NAMH from human cloned histamine 3 receptor expressed in CHO cells; assay type: cell-based
Histamine H3 receptor [2] = target: Histamine H3 receptor (Rattus norvegicus, UniProt Q9QYN8); experiment: Displacement of [3H]NAMH from rat cloned histamine 3 receptor expressed in CHO cells; assay type: cell-based
[3] = target: Sodium-dependent noradrenaline transporter (Homo sapiens) (UniProt P23975); experiment: Inhibition of NET at 10 uM
[4] = Volume of distribution in rat at 1 mg/kg, iv after 6 hrs; assay type: ADME, organism-based; parameters: dose 1 mg/kg, route intravenous; conditions: in vivo
[5] = Solubility of the compound at pH 7.4; assay type: physicochemical; conditions: buffer
[6] = Clearance in rat at 1 mg/kg, iv after 6 hrs; assay type: ADME, organism-based; parameters: dose 1 mg/kg, route intravenous; conditions: in vivo
Rattus norvegicus [7] = experiment: Induction of wake promoting activity in EEG/EMG Sprague-Dawley rat model assessed as increase in waking time at 10 mg/kg, ip after 4 hrs; assay type: functional; conditions: route intraperitoneal
Rattus norvegicus [8] = experiment: Induction of wake promoting activity in EEG/EMG Sprague-Dawley rat model assessed as increase in waking time at 30 mg/kg, ip after 4 hrs; assay type: functional; conditions: route intraperitoneal
[9] = Cmax in rat at 5 mg/kg, po after 6 hrs; assay type: ADME, organism-based; parameters: dose 5 mg/kg, route oral; conditions: in vivo
[10] = Half life in rat at 5 mg/kg, po after 6 hrs; assay type: ADME, organism-based; parameters: dose 5 mg/kg, route oral; conditions: in vivo
[11] = Half life in rat liver microsomes; assay type: ADME, Microsome
[12] = Half life in rat at 1 mg/kg, iv after 6 hrs; assay type: ADME, organism-based; parameters: dose 1 mg/kg, route intravenous; conditions: in vivo
[13] = Oral bioavailability in rat at 5 mg/kg after 6 hrs; assay type: ADME, organism-based; conditions: in vivo
Cytochrome P450 2D6 = Cytochrome P450 2D6 (Homo sapiens, UniProt P10635); experiment: Inhibition of CYP2D6; assay type: ADME
[14] = target: Histamine H2 receptor (Homo sapiens) (UniProt P25021); experiment: Inhibition of human histamine H2 receptor at 10 uM
Histamine H3 receptor [15] = target: T1, Histamine H3 receptor; experiment: Inverse activity against human histamine 3 receptor by [35S]GTPgammaS binding assay; assay type: functional
Rattus norvegicus [16] = experiment: Inhibition of (R)-alpha-methyl histamine-induced dipsogenia in ip dosed rat; assay type: functional
Rattus norvegicus [17] = experiment: Induction of wake promoting activity in ip dosed EEG/EMG Sprague-Dawley rat model assessed as increase in waking time after 4 hrs; assay type: functional, organism-based
Cytochrome P450 3A4 = Cytochrome P450 3A4 (Homo sapiens, UniProt P08684); experiment: Inhibition of CYP3A4; assay type: ADME
[18] = Half life in human liver microsomes; assay type: ADME, Microsome
[19] = AUC (0 to 6 hrs) in rat at 5 mg/kg, po; assay type: ADME, organism-based; parameters: time < 6 hr, dose 5 mg/kg, route oral; conditions: plasma
[20] = Solubility of the compound at pH 2; assay type: physicochemical; conditions: buffer
[21] = Half life in mouse liver microsomes; assay type: ADME, Microsome
[22] = Ratio of drug level in brain to plasma in rat at 5 mg/kg, po; assay type: ADME, organism-based; parameters: dose 5 mg/kg, route oral; conditions: read-out: BPR
[23] = Half life in monkey liver microsomes; assay type: ADME, Macaca mulatta, Microsome; conditions: rhesus monkey
Histamine H3 receptor [24] = target: T1, Histamine H3 receptor; experiment: Antagonist activity at human histamine 3 receptor by [35S]GTPgammaS binding assay; assay type: functional
[25] = target: Histamine H4 receptor (Homo sapiens) (UniProt Q9H3N8); experiment: Inhibition of human histamine H4 receptor at 10 uM
Cytochrome P450 2C9 = Cytochrome P450 2C9 (Homo sapiens, UniProt P11712); experiment: Inhibition of CYP2C9; assay type: ADME
[26] = Half life in dog liver microsomes; assay type: ADME, Canis lupus familiaris, Microsome
[27] = target: Histamine H1 receptor (Homo sapiens) (UniProt P35367); experiment: Inhibition of human histamine H1 receptor at 10 uM
Cytochrome P450 1A2 = target: T2, Cytochrome P450 1A2 (Homo sapiens, UniProt P05177); experiment: Inhibition of CYP1A2; assay type: ADME
T2 sequence (P05177 whole entry): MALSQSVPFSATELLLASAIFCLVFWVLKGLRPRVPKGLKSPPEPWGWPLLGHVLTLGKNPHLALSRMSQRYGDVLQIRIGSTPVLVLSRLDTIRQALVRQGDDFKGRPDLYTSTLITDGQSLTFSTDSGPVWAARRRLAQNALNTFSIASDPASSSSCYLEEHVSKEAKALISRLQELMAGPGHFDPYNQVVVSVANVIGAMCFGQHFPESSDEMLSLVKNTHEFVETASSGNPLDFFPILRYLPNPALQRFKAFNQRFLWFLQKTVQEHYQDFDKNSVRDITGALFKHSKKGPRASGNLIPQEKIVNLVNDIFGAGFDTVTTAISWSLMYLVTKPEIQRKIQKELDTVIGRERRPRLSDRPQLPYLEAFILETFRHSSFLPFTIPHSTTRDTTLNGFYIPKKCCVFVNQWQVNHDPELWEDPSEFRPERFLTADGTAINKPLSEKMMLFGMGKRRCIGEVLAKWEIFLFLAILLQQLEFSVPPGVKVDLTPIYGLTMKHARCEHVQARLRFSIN

Cytochrome P450 2C19 = Cytochrome P450 2C19 (Homo sapiens, UniProt P33261); experiment: Inhibition of CYP2C19; assay type: ADME
Rattus norvegicus [28] = experiment: Induction of wake promoting activity in EEG/EMG Sprague-Dawley rat model assessed as increase in waking time at 3 mg/kg, ip after 4 hrs; assay type: functional; conditions: route intraperitoneal
Rattus norvegicus [29] = experiment: Induction of wake promoting activity in EEG/EMG Sprague-Dawley rat model assessed as increase in waking time at 10 mg/kg, ip after 7 hrs; assay type: functional; conditions: route intraperitoneal
[30] = Volume of distribution in iv dosed rat; assay type: ADME, organism-based; conditions: in vivo
[31] = Oral bioavailability in rat; assay type: ADME, organism-based; conditions: in vivo
[32] = Half life in iv dosed rat; assay type: ADME, organism-based; conditions: in vivo
[33] = Clearance in iv dosed rat; assay type: ADME, organism-based; conditions: in vivo
[34] = Ratio of drug level in brain to plasma in iv dosed rat; assay type: ADME, organism-based; conditions: read-out: BPR
[35] = target: Voltage-gated inwardly rectifying potassium channel KCNH2 (Homo sapiens, UniProt Q12809); experiment: Inhibition of human ERG by patch express assay
Voltage-gated inwardly rectifying potassium channel KCNH2, sequence (Q12809 whole entry): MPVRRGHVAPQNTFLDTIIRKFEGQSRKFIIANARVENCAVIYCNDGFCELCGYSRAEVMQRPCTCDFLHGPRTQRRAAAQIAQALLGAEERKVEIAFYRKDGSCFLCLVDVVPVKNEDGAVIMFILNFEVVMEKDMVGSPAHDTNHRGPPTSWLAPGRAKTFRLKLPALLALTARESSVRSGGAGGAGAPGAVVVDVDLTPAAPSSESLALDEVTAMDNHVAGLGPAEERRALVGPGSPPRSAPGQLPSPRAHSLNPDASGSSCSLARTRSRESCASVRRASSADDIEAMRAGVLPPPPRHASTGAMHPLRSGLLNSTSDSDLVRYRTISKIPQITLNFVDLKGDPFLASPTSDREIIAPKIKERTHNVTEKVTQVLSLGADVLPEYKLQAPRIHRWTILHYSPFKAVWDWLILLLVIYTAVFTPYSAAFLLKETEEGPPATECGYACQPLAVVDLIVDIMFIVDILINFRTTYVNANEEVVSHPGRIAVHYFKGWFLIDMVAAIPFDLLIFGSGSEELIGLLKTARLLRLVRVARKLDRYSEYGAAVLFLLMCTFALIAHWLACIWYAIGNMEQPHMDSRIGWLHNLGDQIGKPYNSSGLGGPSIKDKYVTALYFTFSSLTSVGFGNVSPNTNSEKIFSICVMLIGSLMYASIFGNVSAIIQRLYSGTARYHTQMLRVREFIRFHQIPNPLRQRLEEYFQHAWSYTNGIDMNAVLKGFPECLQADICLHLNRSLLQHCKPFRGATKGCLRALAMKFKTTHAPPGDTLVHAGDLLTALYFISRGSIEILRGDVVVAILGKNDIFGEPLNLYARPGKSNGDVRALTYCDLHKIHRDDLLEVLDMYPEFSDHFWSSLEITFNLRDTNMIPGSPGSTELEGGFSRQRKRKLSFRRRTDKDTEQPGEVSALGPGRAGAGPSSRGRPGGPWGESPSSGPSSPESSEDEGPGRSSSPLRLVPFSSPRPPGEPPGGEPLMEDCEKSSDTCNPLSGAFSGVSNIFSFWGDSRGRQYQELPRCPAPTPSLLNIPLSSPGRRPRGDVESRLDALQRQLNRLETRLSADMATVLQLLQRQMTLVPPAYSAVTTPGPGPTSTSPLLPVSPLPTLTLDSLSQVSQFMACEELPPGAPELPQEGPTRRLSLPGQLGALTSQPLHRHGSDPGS

Histamine H3 receptor (Rattus norvegicus, UniProt Q9QYN8), sequence (Q9QYN8 whole entry): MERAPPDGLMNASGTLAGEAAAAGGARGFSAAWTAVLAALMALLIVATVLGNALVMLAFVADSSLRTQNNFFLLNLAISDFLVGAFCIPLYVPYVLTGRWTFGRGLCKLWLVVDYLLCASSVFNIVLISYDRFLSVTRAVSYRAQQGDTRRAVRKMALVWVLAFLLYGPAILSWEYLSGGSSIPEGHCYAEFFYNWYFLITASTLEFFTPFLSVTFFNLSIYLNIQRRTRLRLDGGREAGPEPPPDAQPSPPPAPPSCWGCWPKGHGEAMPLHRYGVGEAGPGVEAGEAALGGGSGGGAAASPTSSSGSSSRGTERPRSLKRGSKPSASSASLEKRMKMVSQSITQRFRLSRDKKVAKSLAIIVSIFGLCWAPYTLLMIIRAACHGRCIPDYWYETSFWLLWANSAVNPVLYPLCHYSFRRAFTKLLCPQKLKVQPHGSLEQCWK
Cytochrome P450 2C9, sequence (P11712 whole entry): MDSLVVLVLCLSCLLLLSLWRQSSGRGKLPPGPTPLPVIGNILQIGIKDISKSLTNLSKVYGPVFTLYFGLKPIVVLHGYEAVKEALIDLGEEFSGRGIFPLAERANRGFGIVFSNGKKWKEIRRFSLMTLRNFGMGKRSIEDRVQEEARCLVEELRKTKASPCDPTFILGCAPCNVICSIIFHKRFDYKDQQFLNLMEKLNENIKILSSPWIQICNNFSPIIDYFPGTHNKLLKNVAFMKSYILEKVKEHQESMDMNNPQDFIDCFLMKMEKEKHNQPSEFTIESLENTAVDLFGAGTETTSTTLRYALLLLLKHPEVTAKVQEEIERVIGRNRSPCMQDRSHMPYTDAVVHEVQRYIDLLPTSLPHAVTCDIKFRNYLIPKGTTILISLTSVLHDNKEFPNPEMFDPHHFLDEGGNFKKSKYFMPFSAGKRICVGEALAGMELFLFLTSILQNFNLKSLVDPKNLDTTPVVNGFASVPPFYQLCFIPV
Cytochrome P450 3A4, sequence (P08684 whole entry): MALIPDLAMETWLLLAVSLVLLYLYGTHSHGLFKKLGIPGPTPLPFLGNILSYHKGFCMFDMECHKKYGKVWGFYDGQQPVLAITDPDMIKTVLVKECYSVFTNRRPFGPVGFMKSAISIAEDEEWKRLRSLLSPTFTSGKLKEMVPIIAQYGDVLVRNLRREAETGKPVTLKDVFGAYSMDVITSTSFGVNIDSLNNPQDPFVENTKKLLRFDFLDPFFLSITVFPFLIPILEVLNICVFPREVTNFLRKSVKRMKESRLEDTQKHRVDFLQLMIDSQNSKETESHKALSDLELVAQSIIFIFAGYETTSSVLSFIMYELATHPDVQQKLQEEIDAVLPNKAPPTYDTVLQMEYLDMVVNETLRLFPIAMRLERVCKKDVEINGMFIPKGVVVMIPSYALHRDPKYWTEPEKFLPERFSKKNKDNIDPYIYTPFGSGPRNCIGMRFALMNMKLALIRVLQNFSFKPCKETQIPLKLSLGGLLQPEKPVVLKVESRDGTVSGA
Cytochrome P450 2C19, sequence (P33261 whole entry): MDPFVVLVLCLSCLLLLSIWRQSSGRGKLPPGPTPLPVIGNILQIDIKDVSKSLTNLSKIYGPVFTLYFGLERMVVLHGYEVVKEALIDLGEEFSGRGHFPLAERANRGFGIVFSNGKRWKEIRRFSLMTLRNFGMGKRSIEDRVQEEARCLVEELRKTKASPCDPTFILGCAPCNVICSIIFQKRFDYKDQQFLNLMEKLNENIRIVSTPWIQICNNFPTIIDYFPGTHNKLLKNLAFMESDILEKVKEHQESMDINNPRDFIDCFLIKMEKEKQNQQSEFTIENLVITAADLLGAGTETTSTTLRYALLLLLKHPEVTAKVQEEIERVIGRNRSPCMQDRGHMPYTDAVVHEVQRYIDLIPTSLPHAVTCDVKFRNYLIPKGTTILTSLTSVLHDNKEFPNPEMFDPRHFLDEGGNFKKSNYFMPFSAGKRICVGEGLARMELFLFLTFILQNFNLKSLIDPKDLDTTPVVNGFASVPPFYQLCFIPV
T1 sequence (Q9Y5N1 whole entry): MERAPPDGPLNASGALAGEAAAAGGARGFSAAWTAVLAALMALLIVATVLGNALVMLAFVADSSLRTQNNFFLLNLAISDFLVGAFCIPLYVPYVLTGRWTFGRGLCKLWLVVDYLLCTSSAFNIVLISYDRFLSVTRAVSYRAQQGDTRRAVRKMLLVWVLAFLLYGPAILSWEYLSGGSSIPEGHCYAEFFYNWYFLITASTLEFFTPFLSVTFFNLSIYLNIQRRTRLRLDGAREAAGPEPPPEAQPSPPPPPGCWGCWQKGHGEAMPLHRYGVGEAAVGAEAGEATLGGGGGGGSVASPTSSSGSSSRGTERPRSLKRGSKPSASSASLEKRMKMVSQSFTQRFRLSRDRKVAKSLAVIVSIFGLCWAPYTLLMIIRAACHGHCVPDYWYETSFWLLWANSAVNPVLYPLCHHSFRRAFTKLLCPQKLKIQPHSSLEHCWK
Cytochrome P450 2D6, sequence (P10635 whole entry): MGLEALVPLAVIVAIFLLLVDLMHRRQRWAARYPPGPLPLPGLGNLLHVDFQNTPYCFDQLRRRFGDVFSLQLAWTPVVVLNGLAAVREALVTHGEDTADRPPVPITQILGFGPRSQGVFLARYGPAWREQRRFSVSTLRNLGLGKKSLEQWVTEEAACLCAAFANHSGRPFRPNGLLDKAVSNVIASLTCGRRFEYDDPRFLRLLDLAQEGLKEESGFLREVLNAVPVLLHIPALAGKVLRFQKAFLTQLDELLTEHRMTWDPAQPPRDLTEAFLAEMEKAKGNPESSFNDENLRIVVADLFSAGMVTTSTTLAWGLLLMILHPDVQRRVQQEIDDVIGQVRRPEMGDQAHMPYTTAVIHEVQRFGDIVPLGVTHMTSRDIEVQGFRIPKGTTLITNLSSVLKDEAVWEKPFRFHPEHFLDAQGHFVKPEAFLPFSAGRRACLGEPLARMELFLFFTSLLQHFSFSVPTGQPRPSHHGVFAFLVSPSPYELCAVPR
Sodium-dependent noradrenaline transporter (Homo sapiens), sequence (P23975 whole entry): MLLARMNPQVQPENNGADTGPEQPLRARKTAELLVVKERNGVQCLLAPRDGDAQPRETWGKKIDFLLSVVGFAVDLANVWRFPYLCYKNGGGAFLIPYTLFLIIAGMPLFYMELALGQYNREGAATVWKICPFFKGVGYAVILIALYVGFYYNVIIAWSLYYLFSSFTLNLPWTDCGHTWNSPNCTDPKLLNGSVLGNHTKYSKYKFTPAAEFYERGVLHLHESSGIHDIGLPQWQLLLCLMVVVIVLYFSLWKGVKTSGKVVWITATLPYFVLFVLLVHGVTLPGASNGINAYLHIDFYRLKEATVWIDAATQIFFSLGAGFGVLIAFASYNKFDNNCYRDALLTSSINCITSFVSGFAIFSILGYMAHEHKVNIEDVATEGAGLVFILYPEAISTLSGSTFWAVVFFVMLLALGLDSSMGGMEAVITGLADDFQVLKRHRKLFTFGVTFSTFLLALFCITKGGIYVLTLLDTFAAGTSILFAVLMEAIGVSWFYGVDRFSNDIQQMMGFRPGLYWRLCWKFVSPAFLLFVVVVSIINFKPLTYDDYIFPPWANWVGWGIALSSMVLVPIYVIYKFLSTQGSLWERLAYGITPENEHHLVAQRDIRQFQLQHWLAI
Histamine H2 receptor (Homo sapiens), sequence (P25021 whole entry): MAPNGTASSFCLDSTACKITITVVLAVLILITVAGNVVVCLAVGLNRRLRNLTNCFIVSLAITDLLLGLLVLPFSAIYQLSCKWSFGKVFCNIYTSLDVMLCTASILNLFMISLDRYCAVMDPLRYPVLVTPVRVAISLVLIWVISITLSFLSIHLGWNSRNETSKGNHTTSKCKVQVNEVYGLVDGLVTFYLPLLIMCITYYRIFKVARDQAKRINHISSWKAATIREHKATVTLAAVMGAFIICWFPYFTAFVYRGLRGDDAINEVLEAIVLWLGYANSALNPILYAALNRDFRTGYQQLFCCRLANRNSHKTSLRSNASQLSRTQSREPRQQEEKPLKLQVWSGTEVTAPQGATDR

Structure (SMILES): C[C@@H]1CCCN1CCCOc1c(F)cc(-c2ccc(=O)n(C)n2)cc1F
- pKi (Histamine H3 receptor [1]): 7.96
- pKi (Histamine H3 receptor [2]): 7.39

Structure (SMILES): C[C@@H]1CCCN1CCCOc1ccc(-c2ccc(=O)n(C)n2)cc1F
- inhibition [3]: > 70%
- Vd [4]: 4.5 L/kg
- solubility [5]: > 250 µg/mL
- clearance [6]: 38 mL/min/kg
- Time (Rattus norvegicus [7]): 157 min
- Time (Rattus norvegicus [8]): 184 min
- Cmax [9]: 284 ng/mL
- half-life [10]: 96 min
- half-life [11]: > 40 min
- half-life [12]: 72 min
- bioavailability [13]: 42%
- pIC50 (Cytochrome P450 2D6): < 4.52
- inhibition [14]: < 30%
- Activity (Histamine H3 receptor [15]): Active
- ED50 (Rattus norvegicus [16]): 0.13 mg/kg
- inhibition (Rattus norvegicus [16]): Dose-dependent effect
- Activity (Rattus norvegicus [17]): Dose-dependent effect
- pIC50 (Cytochrome P450 3A4): < 4.52
- half-life [18]: > 40 min
- AUC(0-t) at 6 h [19]: 936 ng·h/mL
- solubility [20]: > 250 µg/mL
- half-life [21]: > 40 min
- Kp [22]: 3.4
- half-life [23]: > 40 min
- pKi (Histamine H3 receptor [1]): 8.24
- pEC50 (Histamine H3 receptor [24]): 8.89
- inhibition [25]: < 30%
- pIC50 (Cytochrome P450 2C9): < 4.52
- half-life [26]: > 40 min
- inhibition [27]: < 30%
- pKi (Histamine H3 receptor [2]): 7.57
- pIC50 (Cytochrome P450 1A2): < 4.52
- pIC50 (Cytochrome P450 2C19): < 4.52

Structure (SMILES): C[C@@H]1CCCN1CCCOc1ccc(-c2ccc(=O)n(-c3ccccn3)n2)cc1
- pKi (Histamine H3 receptor [1]): 8.00
- pKi (Histamine H3 receptor [2]): 7.66

Structure (SMILES): COc1cc(OCCCN2CCC[C@H]2C)ccc1-c1ccc(=O)[nH]n1
- pKi (Histamine H3 receptor [1]): 6.82
- pKi (Histamine H3 receptor [2]): 6.64

Structure (SMILES): C[C@@H]1CCCN1CCCOc1ccc(-c2ccc(=O)[nH]n2)c(F)c1
- pKi (Histamine H3 receptor [1]): 7.80
- pKi (Histamine H3 receptor [2]): 7.16

Structure (SMILES): C[C@@H]1CCCN1CCCOc1ccc(-c2ccc(=O)n(C)n2)cc1
- half-life [10]: 138 min
- AUC(0-t) at 6 h [19]: 538 ng·h/mL
- Kp [22]: 3.5

The remaining molecules from weak to strong by pKi (Histamine H3 receptor [1]), led by results:

- pKi (Histamine H3 receptor [1]): 8.24
- pKi (Histamine H3 receptor [2]): 7.96
Structure (SMILES): C[C@@H]1CCCN1CCCOc1ccc(-c2ccc(=O)n(CC(F)(F)F)n2)cc1

- bioavailability [31]: < 10%
- pKi (Histamine H3 receptor [1]): 8.51
- pKi (Histamine H3 receptor [2]): 8.00
- Kp [34]: < 1
Structure (SMILES): C[C@@H]1CCCN1CCCOc1ccc(-c2cc(-c3ccccn3)c(=O)[nH]n2)cc1

- inhibition [3]: 19%
- Vd [4]: 2.5 L/kg
- solubility [5]: > 250 µg/mL
- clearance [6]: 37 mL/min/kg
- Cmax [9]: 146 ng/mL
- half-life [10]: 258 min
- half-life [11]: > 40 min
- half-life [12]: 48 min
- bioavailability [13]: 38%
- pIC50 (Cytochrome P450 2D6): < 4.52
- Activity (Histamine H3 receptor [15]): Active
- pIC50 (Cytochrome P450 3A4): < 4.52
- half-life [18]: > 40 min
- AUC(0-t) at 6 h [19]: 892 ng·h/mL
- solubility [20]: > 250 µg/mL
- half-life [21]: > 40 min
- Kp [22]: 2.5
- half-life [23]: > 40 min
- pKi (Histamine H3 receptor [1]): 8.62
- pEC50 (Histamine H3 receptor [24]): 8.68
- pIC50 (Cytochrome P450 2C9): < 4.52
- half-life [26]: > 40 min
- pKi (Histamine H3 receptor [2]): 8.34
- pIC50 (Cytochrome P450 1A2): < 4.52
- pIC50 (Cytochrome P450 2C19): < 4.52
Structure (SMILES): C[C@H](COc1ccc(-c2ccc(=O)n(C)n2)cc1)CN1CCC[C@H]1C
- Time (Rattus norvegicus [7]): 231 min
- Time (Rattus norvegicus [28]): 166 min
- ED50 (Rattus norvegicus [16]): 0.02 mg/kg
- inhibition (Rattus norvegicus [16]): Dose-dependent effect
- Time (Rattus norvegicus [29]): 196 min

- Vd [30]: 3.9 L/kg
- bioavailability [31]: 56%
- half-life [32]: 90 min
- half-life [11]: > 40 min
- pIC50 (Cytochrome P450 2D6): < 4.52
- pIC50 (Cytochrome P450 3A4): < 4.52
- half-life [18]: > 40 min
- half-life [21]: > 40 min
- half-life [23]: > 40 min
- clearance [33]: 29 mL/min/kg
- pKi (Histamine H3 receptor [1]): 8.85
- pIC50 (Cytochrome P450 2C9): < 4.52
- half-life [26]: > 40 min
- pKi (Histamine H3 receptor [2]): 8.10
- pIC50 (Cytochrome P450 1A2): < 4.52
- pIC50 (Cytochrome P450 2C19): < 4.52
- Kp [34]: 0.5
Structure (SMILES): C[C@@H]1CCCN1CCCOc1ccc(-c2ccc(=O)n(-c3ncccn3)n2)cc1
- pIC50 [35]: < 5.00
